PMC8494430, “Development of a fluorogenic ADAMTS-7 substrate” (Journal of Enzyme Inhibition and Medicinal Chemistry, 2021)

Molecular target: T1, ADAMTS-1 (Homo sapiens, UniProt Q9UHI8)
T1 construct: made in house
T1 sequence (Q9UHI8 253-967): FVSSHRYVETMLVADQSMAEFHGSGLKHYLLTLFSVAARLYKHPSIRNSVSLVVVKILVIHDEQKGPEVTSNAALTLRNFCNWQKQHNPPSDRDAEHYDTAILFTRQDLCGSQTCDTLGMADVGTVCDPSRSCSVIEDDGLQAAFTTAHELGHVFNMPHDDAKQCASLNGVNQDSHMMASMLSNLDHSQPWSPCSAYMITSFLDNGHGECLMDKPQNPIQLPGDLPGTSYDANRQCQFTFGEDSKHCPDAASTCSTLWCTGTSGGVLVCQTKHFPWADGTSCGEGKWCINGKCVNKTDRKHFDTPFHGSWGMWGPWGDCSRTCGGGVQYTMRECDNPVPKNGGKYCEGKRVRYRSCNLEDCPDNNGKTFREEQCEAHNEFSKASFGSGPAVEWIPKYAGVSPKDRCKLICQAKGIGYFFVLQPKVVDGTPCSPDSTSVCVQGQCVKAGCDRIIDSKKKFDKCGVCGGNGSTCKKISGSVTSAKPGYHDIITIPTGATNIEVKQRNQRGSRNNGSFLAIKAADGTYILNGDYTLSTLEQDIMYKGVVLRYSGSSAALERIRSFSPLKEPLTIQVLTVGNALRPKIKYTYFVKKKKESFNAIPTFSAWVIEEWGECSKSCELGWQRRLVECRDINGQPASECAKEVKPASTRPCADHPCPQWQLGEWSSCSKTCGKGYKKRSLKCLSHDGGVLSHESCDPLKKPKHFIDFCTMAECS
Assay: Cleavage of ATS7FP7 by ADAMTS-1
Type: biochemical
Conditions: ADAMTS-1 10 nM, ATS7FP7 40 μM
Protocol: All enzyme assays were conducted in TNC-B buffer (50 mM Tris- HCl, pH 7.5, 150 mM NaCl, 10 mM CaCl2, and 0.02% NaN3) at 37 °C in 384 well plates (Cat. No: 784900, Greiner Bio-One, Austria). To avoid the formation of inhibitor or peptide aggregates, the detergent Brij-35 (0.05%) was added to TNC-B[13]. For inhibition studies, stock solutions of chemical compounds were prepared in dimethyl sulfoxide (DMSO) (10 mM). These were further diluted at different concentrations in TNC-B and incubated with ADAMTS-1, ADAMTS-4, ADAMTS-5, ADAMTS-7 or ADAMTS-8 (10 nM) for 1 h at 37 °C. Blank samples were prepared using buffer only and the rate of cleavage for blank reactions was subtracted from the rates measured in the presence of enzyme. Upon addition of the indicated ADAMTS-7 FRET substrates (40 µM), the fluorescence was measured immediately using a FLUOstar Omega microplate reader (BMG Labtech, Germany) with an excitation filter wavelength of 485 nm and an emission filter wavelength of 520 nm.
Supplementary Figure 6: Cleavage of ATS7FP7 by members of the ADAMTS family. A) ATS7FP7 (40 μM) was incubated either with ADAMTS-1, -4, -5, -7, or -8 (10 nM). Fluorescence was detected (λex = 485 nm, λem = 520 nm) for 8 h at 37°C and reported as relative fluorescence units (RFU). The data are presented as average ± SEM (n=3) and were fitted with a linear regression. […]

Glu-Ala-Ala-Ala-Arg↓Ala-Glu↓Ala-Ala-Ala-Lys [ATS7FP7]
cleavage by ADAMTS-1: neither ADAMTS-1 nor ADAMTS-8 were able to cleave ATS7FP7
